Assay results from US20260069619A1, “Treatment of Dry Eye Disease Using Mitochondrially Targeted Antioxidants” (MITOTECH S.A., priority 2022, published 2026).

Experiments:
eye = conditions: cited from earlier work
[1] = system: subjects with dry eye syndrome; test: VISTA-2 clinical study (NCT04206020): central corneal fluorescein staining; type: in vivo, human; conditions: for Change from baseline in central fluorescein staining, LS Mean: 1.55 μg/mL SkQ1, ITT subgroup, observed data only
Protocol: The VISTA-2 (NCT04206020) clinical study reported results of a dose of 1.55 μg/mL SkQ1 compared to placebo (vehicle). VISTA-2 reported a measured change of ocular discomfort scale. The scale ranged from 0 to 4 with 0=no discomfort and 4=constant discomfort from baseline to Day 57. VISTA-2 reported a measured change of level of conjunctival fluorescein staining (sum of temporal and nasal regions). The scale in each region ranged from 0 to 4, with 0=no staining and 4=confluent staining from baseline to day 57. Study subjects were carefully monitored for any adverse events.
(§1) In addition to the reported data, observed data collected during the VISTA-1 and VISTA-2 clinical studies were analyzed in an ITT subgroup with an unanesthetized Schirmer's Test ≥7 mm at baseline (initial evaluation).
(§2) In both VISTA-1 and VISTA-2, post-hoc analyses were conducted on observed data for the ITT subgroup including subjects with an unanesthetized Schirmer's test score of ≥7 mm at baseline, with observed data only to evaluate change from baseline in central fluorescein staining. Table 4 summarizes the results for subjects with unanesthetized Schirmer's test score of […] at baseline. […] In VISTA-2, with increased sample size, significant improvement was confirmed in this subgroup (pANCOVA=0.0168). In Table 4, the change from baseline in central fluorescein staining for the ITT subgroup with unanesthetized Schirmer's test score of ≥7 mm at baseline is provided with observed data only.
(§3) A similar subgroup, as described above, was also analyzed in post-hoc analyses for both VISTA-1 and VISTA-2 to evaluate the proportion of subjects with clearing of corneal fluorescein staining in the central region. […] In VISTA-2, with increased sample size, significant improvement was confirmed (pLogistic regression=0.0049, pPearson chi-squared=0.0033, pFisher's exact test=0.0037). In Table 5, the proportion of study subjects with clearing of corneal fluorescein staining in the central corneal region, for the ITT Subgroup with unanesthetized Schirmer's test score of ≥7 mm at baseline is presented, with observed data only.

[2] = system: subjects with dry eye syndrome; test: VISTA-2 clinical study: best corrected visual acuity (BCVA-logMAR); type: in vivo, human; conditions: blurred vision [OSDI 4]≥1, poor vision [OSDI 5]≥1 at baseline
Source text: Visual acuity can be measured by a health care provider to provide a sign of DED. The visual acuity can be a best corrected visual acuity (BCVA) of an eye or of both eyes. A logarithm of the minimum angle of resolution (LogMAR) chart such, for example, a Bailey-Lovie chart or an Early Treatment Diabetic Retinopathy Study chart can be utilized to measure BCVA. The number of letters read correctly by a subject can be converted to logMAR scores. The VISTA-2 (NCT04206020) clinical study reported results of a dose of 1.55 μg/mL SkQ1 compared to placebo (vehicle). VISTA-2 reported a measured change of ocular discomfort scale. The scale ranged from 0 to 4 with 0=no discomfort and 4=constant discomfort from baseline to Day 57. VISTA-2 reported a measured change of level of conjunctival fluorescein staining (sum of temporal and nasal regions). The scale in each region ranged from 0 to 4, with 0=no staining and 4=confluent staining from baseline to day 57. Study subjects were carefully monitored for any adverse events. [table] In VISTA-2, change from baseline in BCVA using a logMAR (BCVA-logMAR) at Visit 3 was evaluated in the ITT subgroup including subjects with Schirmer's test score ≥7 mm, blurred vision [OSDI 4]≥1, and poor vision [OSDI 5]≥1 at baseline. Significant improvement was shown in VISTA-2 with pANCOVA=0.0143. […]

[3] = system: subjects with dry eye syndrome; test: VISTA-1 clinical study (NCT03764735): central corneal fluorescein staining; type: in vivo, human; conditions: for Change from baseline in central corneal fluorescein staining, ANCOVA model LS Mean (SE) / Difference in Means, Active - Placebo (two-sample t-test), central corneal fluorescein staining change: 57 days, mITT; for Change from baseline in central corneal fluorescein staining, Mean (SD): after 57 days, mITT population, scale 0-4; for Change from baseline in central fluorescein staining, LS Mean: ITT subgroup, observed data only
Source text: The VISTA-1 clinical study (NCT03764735) evaluated ophthalmic solutions with different concentrations of SkQ1 for various aspects of safety and effectiveness compared to placebo (vehicle) for treatment of various signs and symptoms of DED. The vehicle was an artificial tear treatment used as a control.
The VISTA-1 study reported change of level of corneal fluorescein staining from baseline to day 57. The level of corneal fluorescein scale ranged from 0 to 4, where level 0=none and level 4=severe. VISTA-1 reported a change in symptoms such as subject-reported grittiness from baseline to day 57, where the scale ranged from 0 to 5 for each symptom, where 0=none and 5=worst. Study subjects were carefully monitored for any adverse events.
as §1, §2, §3

[4] = 1.55 μg/mL SkQ1, ITT subgroup Schirmer's ≥7 mm at baseline
[5] = 1.55 μg/mL SkQ1, ITT subgroup Schirmer's ≥7 mm at baseline, of 78 subjects
[6] = VISTA-1, 1.55 μg/mL SkQ1, ITT subgroup Schirmer's ≥7 mm at baseline
[7] = VISTA-1, 1.55 μg/mL SkQ1, ITT subgroup Schirmer's ≥7 mm at baseline, of 46 subjects

SkQ1
dose at which mild ocular toxicity is observed (eye; in vivo): 45 μg/eye/day | no observed adverse effect level (NOAEL) for ocular toxicity (eye; per eye per day): 4.5 μg/eye/day | Proportion of Subjects with Fluorescein Staining in the Central Region (>0 Score) [1, 4]: (83.3%) | Proportion of Subjects without Fluorescein Staining in the Central Region (=0 Score) [1, 4]: (16.7%) | Number of Subjects with Fluorescein Staining in the Central Region (>0 Score) [1, 5]: 65 | Number of Subjects without Fluorescein Staining in the Central Region (=0 Score) [1, 5]: 13 | Change from baseline in central fluorescein staining, LS Mean ([1]; unanesthetized Schirmer's test <7 mm at baseline): −0.156 | Change from baseline in central fluorescein staining, LS Mean ([1]; unanesthetized Schirmer's test ≥7 mm at baseline): −0.43 | Odds Ratio, Logistic Regression, clearing of central corneal fluorescein staining, 1.55 μg/mL SkQ1 - Placebo ([1]; ITT subgroup Schirmer's ≥7 mm at baseline): 6.73 | BCVA-logMAR change from baseline, LS Mean (SE) ([2]; 1.55 μg/mL SkQ1, ITT subgroup Schirmer's <7 mm): −0.0 (0.0137) | BCVA-logMAR change from baseline, LS Mean (SE) ([2]; 1.55 μg/mL SkQ1, Visit 3, ITT subgroup Schirmer's ≥7 mm): −0.012 (0.0143) | Change from baseline in central corneal fluorescein staining, ANCOVA model LS Mean (SE) ([3]; 0.155 μg/mL SkQ1): −0.31 (0.059) | Difference in Means, Active - Placebo (two-sample t-test), central corneal fluorescein staining change ([3]; 0.155 μg/mL SkQ1): −0.02 | Change from baseline in central corneal fluorescein staining, ANCOVA model LS Mean (SE) ([3]; 0.155 μg/mL SkQ1, listed as SkQ): −0.31 | Change from baseline in central corneal fluorescein staining, Mean (SD) ([3]; 0.155 μg/mL SkQ1 ophthalmic solution BID): −0.30 (0.816) | Change from baseline in central corneal fluorescein staining, ANCOVA model LS Mean (SE) ([3]; 1.55 μg/mL SkQ1): −0.20 (0.058) | Difference in Means, Active - Placebo (two-sample t-test), central corneal fluorescein staining change ([3]; 1.55 μg/mL SkQ1): 0.08 | Change from baseline in central corneal fluorescein staining, ANCOVA model LS Mean (SE) ([3]; 1.55 μg/mL SkQ1, listed as SkQ6): −0.20 | Change from baseline in central corneal fluorescein staining, Mean (SD) ([3]; 1.55 μg/mL SkQ1 ophthalmic solution BID): −0.20 (0.763) | Treatment effect on the central fluorescein staining sign of dry eye vs placebo ([3]; 0.155 and 1.55 μg/mL SkQ1 ophthalmic solution, all treatment groups): no statistically significant beneficial treatment effect | Proportion of Subjects with Fluorescein Staining in the Central Region (>0 Score) [3, 6]: (84.8%) | Proportion of Subjects without Fluorescein Staining in the Central Region (=0 Score) [3, 6]: (15.2%) | Number of Subjects with Fluorescein Staining in the Central Region (>0 Score) [3, 7]: 39 | Number of Subjects without Fluorescein Staining in the Central Region (=0 Score) [3, 7]: 7 | Change from baseline in central fluorescein staining, LS Mean ([3]; VISTA-1, 1.55 μg/mL SkQ1, unanesthetized Schirmer's test <7 mm at baseline): −0.20 | Change from baseline in central fluorescein staining, LS Mean ([3]; VISTA-1, 1.55 μg/mL SkQ1, unanesthetized Schirmer's test ≥7 mm at baseline): −0.46 | Odds Ratio, Logistic Regression, clearing of central corneal fluorescein staining, 1.55 μg/mL SkQ1 - Placebo ([3]; VISTA-1, ITT subgroup Schirmer's ≥7 mm at baseline): 7.57
